{"source": "patent US6262095A", "about": "“Use of tricyclic derivatives of 1,4-dihydro-1,4-dioxo-1H-naphthalene, novel compounds obtained and their application in theraphy” (Laboratoire Innothera, priority 1995, dated 2001)", "key": {"[1]": {"system": "capillary resistance of rats", "test": "Capillary resistance of rats after oral administration (petechial index)", "type": "in vivo, rat (Wistar)", "conditions": "rat", "method": "The increase in the capillary resistance is evaluated by the modification of the petechial index (negative pressure inducing the extravasation of the erythrocytes), measured by a method derived from the angiosterrometer of Parrot.\nThe studies are carried out on male Wistar rats with an average weight of 200 g (approximate age six weeks). The bottom area of the back is shorn, then the hair is pulled by means of a paste based on a derivative of thioglycolic acid and calcium hydroxide. After approximately 30 min, the skin is abundantly rinsed and dried.\nOn the day of the study, the rats are maintained without constraint. A low pressure of 80 mm of mercury is applied. If the petechiae (extravasation of erythrocytes) have not appeared within 15 sec, the low pressure is increased as a countermeasure, keeping the suction cap at the same place.\nThe minimum low pressure where petechias appear, in mm of mercury, expresses the basal capillary resistance (before any treatment). Two measurements are made for each test at different sites on of the back.\nThe rats are treated by the oral route. […] All the measurements are done in the blind mode.\nA percentage of variation in the capillary resistances of the animals treated compared to their basal capillary resistance is calculated for each compound studied, at each treatment time and compared with the control group (excipient only) or the reference group."}, "[2]": {"system": "hyperpermeability induced by zymosan in rats", "test": "Inflammatory hyperpermeability induced by zymosan in rats", "type": "in vivo, rat (Wistar)", "conditions": "rat, oral, 5 mg/kg", "method": "The vascular permeability is studied in vivo by measuring the extravasation of albumin, the quantity of which is determined using an albumin-binding dye (Evans blue).\nThe hyperpermeability is induced by the intradermal injection of a solution of histamine, bradykinin, or zymosan.\nThe abdominal walls of the rats (Wistar, 200-230 g) are shorn 1 h before the start of the experiment. The product to be tested is injected by the intraperitoneal route or orally 1-4 h before the sacrifice. The rats are anesthetized with a halothane mixture. They then receive an intradermal injection in their abdomen of 0.10 or 0.15 mL (or for histamine 6.7 or […]) of inflammatory agent and an intravenous injection of 1 mL of 0.5% Evans blue solution in the vein of the penis. These injections are carried out 30 min before the sacrificing.\n30 min after these two injections, the rats are sacrificed by cervical dislocation.\nAt the site of the injection of the inflammatory agent, the skin is cut and placed into glass tubes with a ground[-glass] neck containing 3 mL of fuming hydrochloric acid. […] After allowing the preparation to stand for 30 min, 7 mL of dichloromethane are added. The tubes are periodically agitated for 1 h. The aqueous phase is eliminated by aspiration, and the organic \"dichloromethane\" phase is filtered. The optical densities are quantified by absorption spectrophotometry at a wavelength of 620 nm, against a blank [control] containing only dichloromethane. The averages of the optical densities of the different lots of treated or control animals are calculated, then a percentage of variation of the values corresponding to the treated [experimental] animals compared to those of the control animals is calculated."}, "mice": {"system": "mice", "test": "Single oral administration toxicity in mice", "type": "in vivo, mouse", "conditions": "single oral administration, 1 g/kg", "description": "Moreover, the compounds of the invention and their possible salts have a very low toxicity."}, "[3]": {"system": "pleurisy by carrageenin in rats", "test": "Pleurisy induced by carrageenin in rats", "type": "in vivo", "conditions": "rat, oral 3×5 mg", "method": "The anti-inflammatory activity of the compounds is also studied by measuring the inhibition of the edema and the leukocyte migration after the induction of pleurisy in rats by the injection of carrageenin into the pleural cavity (Almeida et al., J. Pharmacol. Exp. Therap., 1980, Vol. 214: p. 74). The rats are treated orally using the compounds 2 h before the injection of carrageenin, and 2 and 4 h after this injection. After a predetermined time (6 h) following the induction of pleurisy, the rats are sacrificed; the pleural liquid is recovered by aspiration, and its volume is measured. The leukocytic cells are counted using the \"cell counter\" technique. The results are expressed as the number of leukocytes in the exudate expressed with respect to 100 g of animal weight and compared with those of the control lot."}, "[4]": {"system": "arterial pressure of the anesthetized rat", "test": "Arterial pressure of the anesthetized rat", "type": "in vivo", "conditions": "i.v. bolus at least up to 28 mg/kg", "method": "The contractile effects are also measured in vitro under dynamic flow conditions, by the pressure developed by the vascular beds that are perfused at a constant flow rate. At the mesenteric level, the selective effect on veins is studied using the model of a double simultaneous and separate infusion of the arterial and venous networks model developed by T. Warner (British J. Pharmacol., 1990, Vol. 99, pp. 427-433). The separation of the two networks is achieved by cutting the vessels and the tissues along the intestinal border. The networks are perfused at 2 mL.min^-1 with a Krebs solution (37.5° C.), which is aerated using 95% O2 and 5% CO2. In vivo, the arterial and venous pressures are measured in the anesthetized animal, under basal conditions and after circulatory arrest caused by the swelling of a balloon catheter introduced at the level of the left atrium. During the cardiac arrest, the venous tone (average circulatory filling pressure at a constant blood volume) is calculated from the venous and arterial pressures measured at equilibrium and corrected as a function of the relative differences in compliance between these two networks (Samar & Coleman, Am. J. Physiol., 1978, Vol. 234: pp. H94-100; Yamamoto et al., Am. J. Physiol., 1980, Vol. 238: pp. H823-828)."}}}
{"smiles": "O=C1c2ccccc2C(=O)c2sc(-c3ccco3)nc21", "note": "[Example n, 4,9-Dihydro-4,9-dioxo-2-(2-furyl)-naphtho[2,3-d]thiazole]", "values": [{"measurement": "correlation of duration of action with plasma concentrations", "setting": "[1]", "result": "correlates with its measured plasma concentrations"}, {"measurement": "dose dependence of oral effect on capillary resistance", "setting": "[1]", "result": "dose dependent over a broad range of doses"}, {"measurement": "duration of action on capillary resistance", "setting": "[1]", "result": "at least 6 h"}, {"measurement": "Increase of capillary resistance, effects after 4 h", "setting": "[1]; 0.1 mg/kg, 4 h, * granulometry: 0.5-0.6 mm", "result": "45 % of the control"}, {"measurement": "Increase of capillary resistance, effect after 6 h", "setting": "[1]; 0.1 mg/kg, 6 h, * granulometry: 0.5-0.6 mm", "result": "45 % of the control"}, {"measurement": "Zymosan-induced hyperpermeability, effect after 2 h", "setting": "[2]; 2 h", "result": "0 % of the control"}, {"measurement": "Zymosan-induced hyperpermeability, effect after 4 h", "setting": "[2]; 4 h", "result": "-21 % of the control"}, {"measurement": "observed signs", "setting": "mice", "result": "red urine"}, {"measurement": "toxic effect and mortality", "setting": "mice", "result": "no observable toxic effect and no mortality"}, {"measurement": "volume of pulmonary exudate", "setting": "[3]", "result": "significantly decreases the volume of pulmonary exudate"}, {"measurement": "arterial pressure", "setting": "[4]", "result": "does not affect the arterial pressure"}]}
